Here are results for two compounds from publication PMC11494886, “Discovery and design of molecular glue enhancers of CDK12–DDB1 interactions for targeted degradation of cyclin K” (RSC Chemical Biology, 2024).

One assay relates to HiBiT-tagged cyclin K. The experiment in a line: HiBiT cyclin K degradation assay (DC50, Dmax). The format is cell-based. Particulars: HiBiT-CCNK KI A549 cells, 2 hours. Here is the method:
Next, we utilized HiBiT technology (Promega) for quantitative analysis of cyclin K degrader activity. […] Importantly, knockout of CDK12 using CRISPR/Cas9 protected cyclin K from SR-4835-induced degradation (Fig. 1D). We verified the depletion of CDK12 in HEK-293T cells (Fig. S3, ESI ^†).
The HiBiT-CCNK KI A549 cells (Promega) were seeded in 384 well plate and treated with the test compounds for 2 hours in a dose dependent manner. Nano-Glo® HiBiT Lytic Detection System (Promega) composed of the Nano-Glo® HiBiT Lytic Substrate, Nano-Glo® HiBiT Lytic Buffer and LgBiT Protein was used as per the manufacturer's instructions. Briefly, a 2× Nano-Glo® HiBiT Lytic Detection Reagent mixture was prepared by adding 20 μL of Nano-Glo® HiBiT Lytic Substrate and 10 μL of LgBiT protein per every 1 mL of Nano-Glo® HiBiT Lytic Buffer. After incubating the cells with the 2× Nano-Glo® HiBiT Lytic Detection Reagent mixture, luminescence was measured. HiBiT tagged cyclin K present at any given concentration was measured by normalizing the luminescence signal at that concentration to the luminescence signal from the DMSO (control) cells. The concentration necessary to achieve a 50% reduction in cyclin K levels (DC50) and the maximum achievable reduction in cyclin K levels (Dmax) was computed from this assay.
A general note: The HiBiT peptide binds its large partner to form an active luciferase.

For a further assay, the system named is HEK-293TDDB1-shRNA cells. The experiment in a line: CellTiter-Glo viability assay, HEK-293T DDB1-shRNA. Particulars: 72 hours; for EC50: Homo sapiens, HEK-293T DDB1 shRNA, CellTiter-Glo, read-out: EC50 cell viability. The format is cell-based, human. An excerpt: (§1) For stable genetic knock-down of DDB1 in cells, predesigned and validated TRC2-pLKO-puro shRNA plasmids for DDB1 (TRCN0000082855 and TRCN0000082856), and a non-targeting shRNA plasmid (SHC001) were obtained from Millipore Sigma. All plasmids were purified using the Qiagen Maxiprep kit (Qiagen). FuGENE HD 6 transfection reagent (Promega) was used for transfection of plasmids and lentiviral gene/shRNA constructs. Mission lentiviral packaging mix (Millipore Sigma) was used to package lentiviral plasmids into lentiviral particles in HEK293T cells, as per manufacturer's protocols. The resultant virus was concentrated using Vivaspin 20 centrifugal concentrators (Sartorius). MDA-MB-231 and HEK293T cells were transduced with lentivirus. Stable knocked down DDB1 (shDDB1-231 and shDDB1-HEK293T) cells were generated after selection with the antibiotic puromycin, and genetic knockdown was confirmed by western blotting.
(§2) Cell viability was measured by Cell Titer Glo assay kit (Promega, USA). EC50 was determined from the nonlinear regression and a four-parameter algorithm on the GraphPad Prism software.
For orientation: ATP-based viability assays read luminescence as a measure of living cells.

For the next assay, the system named is HEK-293T cells. The assay can be described thus: CellTiter-Glo viability assay, WT HEK-293T. The format is cell-based. Particulars: Homo sapiens, 72 hours, read-out: EC50 cell viability.
From the text: MDA-MB-231 (human triple-negative breast cancer cells) and HEK293T (human embryonic kidney cells) were purchased from the American type culture collection (ATCC) and maintained in Dulbecco's modified Eagle's medium (DMEM) (Gibco) supplemented with 10% (v/v) heat-inactivated fetal bovine serum (FBS) (Gibco) and penicillin/streptomycin (100 U mL^−1 each). HiBiT-CCNK KI A549 cells, purchased from Promega, were maintained in F12 medium supplemented with 10% (v/v) heat-inactivated fetal bovine serum (FBS) (Gibco) and penicillin/streptomycin (100 U mL^−1 each). DDB1-knockdown MDA-MB-231 and DDB1-knockdown HEK293T cell lines were maintained in the same media formulation as their corresponding wild-type cell lines. All cell lines were cultured at 37 °C in an incubator with CO2 levels maintained at 5%.
as §2

The next assay deals with T1, Cdk12/CycK (Homo sapiens, UniProt Q9NYV4).
T1 construct: GST (N, cleaved yes); made in house; host or cells: Sf9 insect cells (MultiBacTurbo), co-expressed with S. cerevisiae CAK1
The experiment in a line: Thermal stability (nanoDSF) of Cdk12/CycK. The format is binding. Particulars: Cdk12/CycK 5 μM, 3-fold molar excess of compound. An excerpt: Synthetic genes, codon optimized for expression in Sf9 insect cells, comprising the kinase domain of human Cdk12 (residues 714–1063, UniProt accession number Q9NYV4) and cyclin box domains of human cyclin K (residues 1–267, UniProt accession number O75909) were purchased from GeneArt. The coding sequence of Cdk12 was integrated into the pACEBac1 acceptor vector, while CycK was introduced into pIDK donor vector. Both target vectors underwent modification, wherein a GST-affinity tag followed by a tobacco etch virus (TEV) protease cleavage site was introduced upstream of the protein coding sequence. A pIDC donor vector was employed to insert full-length CDK-activating kinase CAK1 (UniProt accession number P43568) from S. cerevisiae devoid of any affinity tag. Cre recombination was performed to combine all three vectors in vitro, resulting in fused vectors suitable for co-expression in Sf9 insect cells. […]
To investigate the thermal stability of proteins and protein complexes in solution, as well as to examine the impact of small molecular compounds on the proteins stability, the nano-differential scanning fluorimetry (nanoDSF) method was employed using a Prometheus NT.48 (NanoTemper) device. […] Thermal stability was monitored over a temperature range of 20–90 °C with a linear gradient of 1.5 °C min^−1, utilizing the PR.ThermControl software (NanoTemper). […]
Background: In DSF a fluorescence change marks the thermal transition of the protein.

Assay [1] has as its system MDA-MB-231DDB1-shRNA cells. The experiment in a line: CellTiter-Glo viability assay, MDA-MB-231 DDB1-shRNA. Particulars: for EC50: Homo sapiens, MDA-MB-231 DDB1 shRNA, 72 hours, CellTiter-Glo, read-out: EC50 cell viability. The format is cell-based, human.
From the text: as §1, §2

Where only a bound is given, the exact number is not on record here.

T1 sequence (Q9NYV4 714-1063): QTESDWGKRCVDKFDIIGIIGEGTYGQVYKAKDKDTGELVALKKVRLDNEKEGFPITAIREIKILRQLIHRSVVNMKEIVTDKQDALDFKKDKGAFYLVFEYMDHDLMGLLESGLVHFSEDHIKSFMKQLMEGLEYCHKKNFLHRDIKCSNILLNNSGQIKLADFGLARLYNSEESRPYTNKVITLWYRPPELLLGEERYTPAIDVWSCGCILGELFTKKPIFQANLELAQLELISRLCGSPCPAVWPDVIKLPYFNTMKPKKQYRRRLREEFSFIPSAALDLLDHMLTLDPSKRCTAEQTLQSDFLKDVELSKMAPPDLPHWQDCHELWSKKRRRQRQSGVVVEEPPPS
T1 sequence (O75909 1-267 partner limits assumed): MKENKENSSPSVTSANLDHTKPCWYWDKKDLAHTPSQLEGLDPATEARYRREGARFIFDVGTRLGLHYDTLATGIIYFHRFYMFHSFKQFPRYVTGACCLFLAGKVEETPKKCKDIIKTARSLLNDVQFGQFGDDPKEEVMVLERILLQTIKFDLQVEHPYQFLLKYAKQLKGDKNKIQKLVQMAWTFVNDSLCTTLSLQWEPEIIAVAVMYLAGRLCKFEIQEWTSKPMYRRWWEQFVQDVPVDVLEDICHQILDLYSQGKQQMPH

`Cn1cc(-n2cnc3c(NCc4nc5cc(Cl)c(Cl)cc5[nH]4)nc(N4CCOCC4)nc32)cn1` [SR-4835]: the “Dmax (maximum reduction in cyclin K levels)” value in the assay with HiBiT-tagged cyclin K (vs DMSO) was > 95%. The DC50 in the assay on HiBiT-tagged cyclin K (read-out: DC50 (concentration for 50% reduction in cyclin K levels)) was ~90 nM. Moreover, the 50% effective concentration (EC50) – broadly, the concentration that produces a half-maximal response – in the assay on HEK-293TDDB1-shRNA cells turned out to be 2000 nM; with HEK-293T cells it was 188 nM; in assay [1] it was 218 nM. In addition, the “ΔTm (elevation of melting temperature)” value on Cdk12/CycK was “+4.1 °C”.
As to `CN(C)C/C=C/C(=O)Nc1ccc(C(=O)N2CCC[C@@H](Nc3ncc(Cl)c(-c4c[nH]c5ccccc45)n3)C2)cc1` [THZ531, reference compound], the “reduction in cyclin K levels” value with HiBiT-tagged cyclin K (dose-response) is “no reduction in cyclin K levels”. The “fold change of EC50 (DDB1 shRNA vs WT)” value is “ns” in the assay on HEK-293TDDB1-shRNA cells (HEK-293T DDB1 shRNA vs WT HEK-293T) and 0.9 in assay [1] (MDA-MB-231 DDB1 shRNA vs WT MDA-MB-231, 72 hours). Further, the concentration giving a half-maximal response (EC50) came to 231 nM in the assay on HEK-293TDDB1-shRNA cells, 128 nM in the assay with HEK-293T cells and 65 nM in assay [1]. At Cdk12/CycK, the “ΔTm (elevation of melting temperature)” value was “+4.15 °C”.
